In this assay the target is T1, human mGluR5 (Homo sapiens, UniProt P41594).
T1 construct: expressed in transfected cells; host or cells: HEK293 cells stably expressing rat GLAST (EAAT1), stably transfected with pcDNAzeo3.1 carrying synthetic human mGluR5 DNA; zeocin-selected single clones
T1 sequence (P41594 21-1212): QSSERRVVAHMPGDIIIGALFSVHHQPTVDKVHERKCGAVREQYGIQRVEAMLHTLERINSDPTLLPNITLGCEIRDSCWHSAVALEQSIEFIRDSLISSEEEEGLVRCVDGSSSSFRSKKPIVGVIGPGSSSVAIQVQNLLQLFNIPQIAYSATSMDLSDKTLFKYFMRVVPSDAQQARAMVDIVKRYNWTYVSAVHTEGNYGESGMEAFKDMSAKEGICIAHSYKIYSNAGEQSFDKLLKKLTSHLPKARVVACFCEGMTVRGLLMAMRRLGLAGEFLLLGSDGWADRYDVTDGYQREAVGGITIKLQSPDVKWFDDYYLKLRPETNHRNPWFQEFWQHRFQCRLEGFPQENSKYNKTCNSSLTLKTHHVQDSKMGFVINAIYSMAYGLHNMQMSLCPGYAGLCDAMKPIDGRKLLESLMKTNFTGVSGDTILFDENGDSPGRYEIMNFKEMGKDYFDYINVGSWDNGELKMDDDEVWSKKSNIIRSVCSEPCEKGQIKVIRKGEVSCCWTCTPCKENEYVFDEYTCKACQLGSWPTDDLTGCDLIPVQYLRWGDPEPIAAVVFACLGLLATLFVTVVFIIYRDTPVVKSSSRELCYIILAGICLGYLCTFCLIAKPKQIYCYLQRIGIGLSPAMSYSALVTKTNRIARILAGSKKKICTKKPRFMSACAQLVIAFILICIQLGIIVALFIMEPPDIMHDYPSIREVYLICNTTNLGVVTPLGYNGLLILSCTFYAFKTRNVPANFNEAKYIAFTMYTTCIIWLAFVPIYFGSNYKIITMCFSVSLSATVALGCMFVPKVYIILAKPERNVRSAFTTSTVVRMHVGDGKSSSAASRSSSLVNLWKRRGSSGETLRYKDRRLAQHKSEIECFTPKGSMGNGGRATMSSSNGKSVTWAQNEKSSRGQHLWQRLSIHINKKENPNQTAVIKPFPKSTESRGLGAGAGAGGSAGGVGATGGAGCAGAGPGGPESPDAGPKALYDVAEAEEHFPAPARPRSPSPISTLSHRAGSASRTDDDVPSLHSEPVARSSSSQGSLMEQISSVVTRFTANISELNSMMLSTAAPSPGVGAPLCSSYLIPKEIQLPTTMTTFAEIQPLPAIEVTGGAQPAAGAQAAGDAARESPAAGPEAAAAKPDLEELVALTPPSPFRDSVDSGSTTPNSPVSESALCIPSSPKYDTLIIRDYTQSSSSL
As to the kind of experiment: In vitro cell-based FLIPR calcium assay for positive modulation of the activation of mGluR5 by glutamate (PAM EC50). The following applies: HEK293/GLAST cells expressing recombinant human mGluR5; FLIPR calcium signal; glutamate added at its EC20; read-out: mGluR5 PAM EC50. In short, it runs like this: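 PAM activity was measured as FLIPR calcium fluorescence in the presence of an EC20 glutamate concentration determined daily from a glutamate concentration-response curve. Cells were HEK293/GLAST clones expressing mGluR5, dye-loaded at 25 °C for 45–60 min in HEPES-buffered HBSS; vehicle control was 0.3% DMSO.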
In general, EC50 refers to the concentration at which the effect is half-maximal. Turning to `CC1(C)CCc2nc3cc(/C=C/c4cccc(C#N)n4)ccc3c(=O)n2C1` [Example 20.13, (E)-6-(2-(8,8-dimethyl-11-oxo-7,8,9,11-tetrahydro-6H-pyrido[2,1-b]quinazolin-3-yl)vinyl)picolinonitrile], the EC50 was in the range of 10 to 30 nM.
With `CC1Cc2nc3cc(/C=C/c4cccc(F)c4)ccc3c(=O)n2C1` (stereo not drawn) [Example 20.14, 6-(3-fluorostyryl)-2,3-dihydro-2-methylpyrrolo[2,1-b]quinazolin-9(1H)-one], the EC50 was 100 to 300 nM.
In the case of `O=c1c2ccc(CCc3ccccc3)cc2nc2n1CCCCC2` [Example 21.1, 3-phenethyl-7,8,9,10-tetrahydroazepino[2,1-b]quinazolin-12(6H)-one] it was 100 to 300 nM; in that of `O=C(Cc1ccccc1)c1ccc2c(=O)n3c(nc2c1)CCCCC3` [Example 21.3, 3-(2-phenylacetyl)-7,8,9,10-tetrahydroazepino[2,1-b]quinazolin-12(6H)-one], 100 to 300 nM; in that of `CC1(C)CCn2c(nc3cc(CCc4ccccn4)ccc3c2=O)C1` [Example 21.6, 7,7-dimethyl-3-(2-(pyridin-2-yl)ethyl)-8,9-dihydro-6H-pyrido[2,1-b]quinazolin-11(7H)-one], 300 to 1000 nM.
In the case of `CC1Cc2nc3cc(CCc4cccc(F)c4)ccc3c(=O)n2C1` (stereo not drawn) [Example 21.7, 6-(3-fluorophenethyl)-2-methyl-2,3-dihydropyrrolo[2,1-b]quinazolin-9(1H)-one] it was 300 to 1000 nM.
The value for `Cc1cnc(NC(=O)c2ccc3c(=O)n4c(nc3c2)CCC(C)CC4)s1` (stereo not drawn) [Example 23.1, 8-methyl-N-(5-methylthiazol-2-yl)-12-oxo-6,7,8,9,10,12-hexahydroazepino[2,1-b]quinazoline-3-carboxamide] was 100 to 300 nM.
Turning to `Cc1cnc(NC(=O)c2ccc3c(=O)n4c(nc3c2)CCOCC4)s1` [Example 23.2, N-(5-methylthiazol-2-yl)-11-oxo-2,4,5,11-tetrahyrdo-1H-[1,4]oxazepino[5,4-b]quinazoline-8-carboxamide], the EC50 lay within 100 to 300 nM.
The value for `O=C(Nc1ccc2c(=O)n3c(nc2c1)CCCCCC3)c1ccc(F)cc1` [Example 24.1, 4-fluoro-N-(13-oxo-7,8,9,10,11,13-hexahydro-6H-azocino[2,1-b]quinazolin-3-yl)benzamide] was 300 to 1000 nM; that for `C/C=C1\CCCCCn2c1nc1cc(C(=O)Nc3ncc(C)s3)ccc1c2=O` [Example 25.1, (E)-6-ethylidene-N-(5-methylthiazol-2-yl)-13-oxo-7,8,9,10,11,13-hexahydro-6H-azocino[2,1-b]quinazoline-3-carboxamide] was less than 10 nM; that for `Cc1cnc(NC(=O)c2ccc3c(=O)n4c(nc3c2)C(C)CCCCC4)s1` (stereo not drawn) [Example 25.3, 6-methyl-N-(5-methylthiazol-2-yl)-13-oxo-7,8,9,10,11,13-hexahydro-6H-azocino[2,1-b]quinazoline-3-carboxamide] was 10 to 30 nM.
The value for `O=C(Nc1ccc(F)cc1)c1ccc2c(c1)N=C1CCCCCCN1C2` [Example 26.1, N-(4-fluorophenyl)-7,8,9,10,11,13-hexahydro-6H-azocino[2,1-b]quinazoline-3-carboxamide] was 300 to 1000 nM.
The value for `Cc1cnc(NC(=O)c2ccn3c(=O)c4c(nc3c2)CCCCCC4)s1` [Example 28.1, N-(5-methylthiazol-2-yl)-12-oxo-7,8,9,10,11,12-hexahydro-6H-cycloocta[d]pyrido[1,2-a]pyrimidine-3-carboxamide] was less than 10 nM.
For the compound `O=C(Nc1ccc(F)cc1)c1ccn2c(=O)c3c(nc2c1)CCCCCC3` [Example 28.2, N-(4-fluorophenyl)-12-oxo-7,8,9,10,11,12-hexahydro-6H-cycloocta[d]pyrido[1,2-a]pyrimidine-3-carboxamide], the EC50 lay in the range of 300 to 1000 nM.
In the case of `Cc1cnc(NC(=O)c2ccn3c(=O)c4c(nc3c2)CCCCC4)s1` [Example 28.3, N-(5-methylthiazol-2-yl)-11-oxo-6,7,8,9,10,11-hexahydrocyclohepta[d]pyrido[1,2-a]pyrimidine-3-carboxamide] it was 30 to 100 nM.

Values taken from patent US10077243B2, “Compounds for treating disorders mediated by metabotropic glutamate receptor 5, and methods of use thereof” (Sunovion Pharmaceuticals Inc., priority 2009, dated 2018).
